Assay results taken from US8338435B2, “Substituted pyrido(3,2-D) pyrimidines and pharmaceutical compositions for treating viral infections” (Gilead Sciences, Inc., priority 2006, dated 2012).
Where two headings read alike, the source gives them in different places.

Tests used:
HCV replicon = test: Anti-HCV replicon assay, EC50 (luciferase luminescence); assay type: cell-based; conditions: Hepatitis C virus
Experimental: (§1) The anti-HCV activity of certain pyrido[3,2-d]pyrimidine derivatives of this invention was tested in a human hepatoma Huh-7 cell line harbouring a HCV replicon. The assay comprised the following steps:
(§2) Step 1: Compound Preparation and Serial Dilution
(§3) • 1. for water soluble pyrido[3,2-d]pyrimidine derivatives, a volume of 500 μL of solution in cell media (DMEM, 10% FBS, P/S, L-Glutamine) was prepared with a concentration being twice the concentration of the starting final serial dilution concentration. A volume of 150 μL of the solution was added to the pre-specified wells in column 1 of a 96-well cell culture plate (PerkinElmer, white plate, cat. #6005181, for EC50 assay; black plate, cat. #6005182 for CC50 assay). The rest of the plate, columns 2-12, was filled with 100 μL of cell media. The plate was then placed on a Precision 2000 Workstation to start the serial dilution. Compounds were diluted three times each step from column 1 to column 10. Column 11 was used as a blank control (no compound added). • 2. for pyrido[3,2-d]pyrimidine derivatives requiring DMSO to dissolve, serial dilution is performed in 50% DMSO in a 384-well plate. A solution containing a compound at 100-fold concentration of the starting final serial dilution concentration was prepared in 50% DMSO and added to the pre-specified wells in column 1 of a polypropylene 384-well plate. The plate was then placed on a Precision 2000 Workstation to start the serial dilution. After the serial dilution, a volume of 2 μL of the solution was transferred from the 384-well plate to a 96-well cell culture plate containing 100 μL of cell media on a Biomek FX Workstation. The DMSO concentration in the final assay condition was 0.5% after cells are added to the plate and the total volume in each well is brought to 200 μL. Step 2: to each well of the serial dilution plate prepared above, 100 μL of cell media containing 6000 suspended Huh-7 HCV replicon cells was added with a Multidrop workstation. The plates were incubated for 3 days at 37° C. with 5% CO2. Step 3: Detection: • a) for the EC50 assay, the media in a 96-well cell culture plate was aspirated with a Biotek EL405 plate-washer. A volume of 200 μL of a solution containing a 1:1 mixture of cell-lysis buffer (Promega, Luciferase Cell Culture Lysis 5× Reagent, cat. #E1531) and luciferase substrate solution (Promega, Luciferase Assay, cat. # E4550) was added to each well of the plate with Multidrop. The plate was incubated for 30 minutes at room temperature before the luminescence signal was measured with a TopCount plate-reader. • b) for the CC50 assay, a volume of 100 μL of pre-mixed CellTiter-Glo (Promega, cat. # G7572) solution is added directly to the cell culture in each well of the plate and the luminescence signal is measured with a TopCount plate-reader after 10 minutes of incubation at room temperature.
(§4) Results in the table below are expressed by the following data: • the 50% cytostatic concentration (CC50). i.e. the concentration that results in 50% inhibition of cell growth, and • the 50% effective concentration (EC50), i.e. the concentration that protects 50% of the cell monolayer from virus-induced cythopathic effect.

[1] = CC50 assay (CellTiter-Glo) in the replicon cells; assay type: cell-based; conditions: human, Huh-7 HCV replicon cells, 3 days incubation, 50% inhibition of cell growth
Experimental: as §1, §2, §3, §4

[2] = 72 h, human hepatoma Huh-7 cell line harbouring a HCV replicon, 3 days incubation, luciferase readout, read-out: EC50

SMILES	EC50 (HCV replicon; [2])	CC50 at 3 days [1]	EC50 (HCV replicon; Huh-7, 72 h)
CCCc1nc(N)nc2ccc(-c3ccc(F)cc3)nc12 [Example 2, 6-(4-fluorophenyl)-4-n-propyl-pyrido[3,2-d]pyrimidin-2-yl-amine]	< 0.3 µM	> 20 µM	
CCCc1nc(N)nc2ccc(-c3ccc(NC(C)=O)cc3)nc12 [Example 3, N-[4-(2-amino-4-n-propyl-pyrido[3,2-d]pyrimidin-6-yl)-phenyl]-acetamide]	0.3 to 1 µM	> 20 µM	
CCc1nc(N)nc2ccc(-c3ccc(F)cc3)nc12 [Example 5, 4-ethyl-6-(4-fluoro-phenyl)-pyrido[3,2-d]pyrimidin-2-ylamine]	< 0.3 µM	< 10 µM	
CC(C)Cc1nc(N)nc2ccc(-c3ccc(F)cc3)nc12 [Example 6, 6-(4-fluorophenyl)-4-isobutyl-pyrido[3,2-d]pyrimidin-2-ylamine]	< 0.3 µM	> 20 µM	
C=CCCc1nc(N)nc2ccc(-c3ccc(F)cc3)nc12 [Example 7, 4-but-3-enyl-6-(4-fluorophenyl)-pyrido[3,2-d]pyrimidin-2-ylamine]		> 20 µM	< 0.3 µM
CCc1nc(N)nc2ccc(-c3ccc(N4CCCC4=O)cc3)nc12 [Example 8, 1-[4-(2-amino-4-ethyl-pyrido[3,2-d]pyrimidin-6-yl)-phenyl]-pyrrolidin-2-one]	< 0.3 µM	> 20 µM	
CCc1nc(N)nc2ccc(-c3cnc(N)cn3)nc12 [Example 9, 6-(5-Amino-pyrazin-2-yl)-4-ethyl-pyrido[3,2-d]pyrimidin-2-ylamine]	0.3 to 1 µM	< 10 µM	
Nc1nc(CCC2OCCCO2)c2nc(-c3ccc(F)cc3)ccc2n1 [Example 10, 4-(2-[1,3]dioxan-2-yl-ethyl)-6-(4-fluoro-phenyl)-pyrido[3,2-d]pyrimidin-2-ylamine]		> 20 µM	0.3 to 1 µM
Cc1nc(N)nc2ccc(-c3ccc(F)cc3)nc12 [Example 11, 4-methyl-6-(4-fluorophenyl)-pyrido[3,2-d]pyrimidin-2-ylamine]	< 0.3 µM	< 10 µM	
CC(C)c1nc(N)nc2ccc(-c3ccc(F)cc3)nc12 [Example 12, 6-(4-fluorophenyl)-4-isopropyl-pyrido[3,2-d]pyrimidin-2-ylamine]	< 0.3 µM	> 20 µM	
Nc1nc(C2CC2)c2nc(-c3ccc(F)cc3)ccc2n1 [Example 13, 4-Cyclopropyl-6-(4-fluoro-phenyl)-pyrido[3,2-d]pyrimidin-2-ylamine]	< 0.3 µM	10 to 20 µM	
Nc1nc(C2CC2)c2nc(-c3ccc(N4CCCC4=O)cc3)ccc2n1 [Example 14, 1-[4-(2-amino-4-cyclopropyl-pyrido[3,2-d]pyrimidin-6-yl)-phenyl]-pyrrolidin-2-one]	< 0.3 µM	10 to 20 µM	
